≈ marks a conversion by molar mass, not a printed value.
Assays:
Assay type in all cases: functional
Micrococcus luteus = experiment: In vitro inhibitory concentration required against Micrococcus luteus (Micrococcus luteus)
[1] = system: Staphylococcus epidermidis; experiment: In vitro inhibitory concentration required against Staphylococcus epidermidis (Staphylococcus epidermidis)
Staphylococcus aureus = experiment: In vitro inhibitory concentration required against Staphylococcus aureus (Staphylococcus aureus)

SMILES	MIC (Micrococcus luteus) [µg/mL]	MIC ([1]; Staphylococcus epidermidis, read-out: MIC) [µg/mL]	MIC (Staphylococcus aureus; Staphylococcus aureus, read-out: MIC) [µg/mL]	MIC [1] [µg/mL]	MIC (Staphylococcus aureus) [µg/mL]
CC[C@H](C)[C@@H](N)C1=N[C@@H](C(=O)N[C@H](CC(C)C)C(=O)N[C@@H](CCC(=O)O)C(=O)N[C@@H](C(=O)N[C@@H]2CCCCNC(=O)[C@@H](CC(N)=O)NC(=O)[C@H](CC(=O)O)NC(=O)[C@@H](Cc3c[nH]cn3)NC(=O)[C@H](Cc3ccccc3)NC(=O)[C@@H]([C@@H](C)CC)NC(=O)[C@H](CCCN)NC2=O)[C@@H](C)CC)CS1 (stereo in doubt; form 1) [BACITRACIN A]	< 0.013	32 (≈ 22.5 µM)	4 (≈ 2.81 µM)		
CC[C@H](C)[C@@H](N)C1=N[C@@H](C(=O)N[C@H](CC(C)C)C(=O)N[C@@H](CCC(=O)O)C(=O)N[C@@H](C(=O)N[C@@H]2CCCCNC(=O)[C@@H](CC(N)=O)NC(=O)[C@H](CC(=O)O)NC(=O)[C@@H](Cc3c[nH]cn3)NC(=O)[C@H](Cc3ccccc3)NC(=O)[C@@H]([C@@H](C)CC)NC(=O)[C@H](CCCN)NC2=O)[C@@H](C)CC)CS1 (stereo in doubt; form 2) [BACITRACIN A]				32 (≈ 22.5 µM)	4 (≈ 2.81 µM)

Source: ChEMBL document CHEMBL1136092, “Enantiotracin” (2003)
